Key:
HIV-Bal in U87MG = assay: Cytokine pre-stimulation and HIV-Bal replication in U87MG, p24 ELISA; type: cell-based; settings: 24 h pre-stimulation, 0-1000 ng/ml, p24 day 7
Protocol: U87MG (A) and HFA (B) were pre-stimulated with increasing doses of either GM-CSF or IFNγ for 24 h followed by HIV-BAL infection for 24 hours. HIV replication was determined by measuring HIV p24 levels by ELISA seven days post-infection. The dotted line represents basal level of HIV infection of astrocytes without cytokine pre-treatment. Data is representative of three experiments performed in quadruplicate. Error bars represent standard deviations of the mean. Asterisks denote significant values (p<0.05) in comparison to untreated cultures as evaluated by analysis of variance.
To determine if pre-stimulation of astrocytes primes astrocytes, for productive HIV infection, U87MG and HFA were pre-treated for 24 hours with TNFγ, GM-CSF, or IFNγ at various concentrations (0-1000 ng/ml) then infected with HIV-Bal at 10 ng of HIV p24/1×10^6 cells for 24 hours. The cells were then washed extensively or trypsinized to remove bound virus and propagated in the presence of the respective cytokine concentration. HIV infection was monitored by p24 ELISA seven days post-infection. […]
IFN-γ Treatment and HIV Infection. […] HIV infection was monitored at day 7 postinfection by measuring p24 levels by conventional enzyme-linked immunosorbent assay (ELISA) (National Cancer Institute, Frederick, Md.).

IFNγ receptor on HFA = assay: Cytokine receptor expression on HFA by flow cytometry; type: cell-based, human; settings: untreated 6%
Protocol: U87MG (A) or HFA (B) were left untreated or treated with GM-CSF (50 ng/ml), IFNγ100 ng/ml) or TNFγ100 ng/ml). […] Percent expression of GM-CSF receptor (R), IFNγR, and TNFγR was measured 24 hours post-stimulation by flow cytometry. Data is representative of three experiments. Error bars represent standard deviations of the mean.
Prior to evaluating if GM-CSF, IFNγ, and TNFγ can augment HIV replication of astrocytes, a question was whether U87MG and HFA express the respective cytokine receptors. U87MG and HFA were treated with or without the respective cytokine for 24 hours and cytokine receptor expression was evaluated by flow cytometry. Approximately 35% of U87MG expressed the IFNγ receptor and a low level of GM-CSF and TNFγ receptors (<8%; FIG. 3A). […] Untreated HFA expressed only low levels of IFNγ receptor (6%) and this expression was abrogated with IFNγ treatment. GM-CSF and TNFγ receptors were not expressed on HFA.

[1] = test system: CD4, hMR, CCR1, D6 on U87MG; assay: HIV receptor and chemokine co-receptor expression on U87MG by flow cytometry; type: cell-based, human
Protocol: (§1) U87MG (A) and HFA (B) were left untreated or treated GM-CSF (50 ng/ml) or IFNγ (100 ng/ml) for 24 h. Expression of receptors on the x-axis was measured by flow cytometry. Isotype refers to mouse IgG. Data is representative of three experiments. Error bars represent standard deviation of the mean. (C). IFNγ up-regulates D6 on U87MG cells. U87MG were left untreated or treated with IFNγ. After 3 days, the cells were immunostained with anti-D6 or isotype antibodies. The first histogram (peak) represents isotype control; the dark shaded histogram represents untreated cultures, and the third histogram (peak) represents IFNγ-treated cultures. Data is typical of quadruplet experiments.
(§2) Because IFNγ was a potent cytokine in inducing HIV infection of astrocytes, it was determined whether IFNγ treatment modulated key HIV receptors CD4, human mannose receptor D6 and co-receptors (CCR1, CCR2, CCR3, CXCR4, and CCR5) for HIV infection. U87MG is human mannose receptor (hMR) […] (FIG. 5). However, hMR was not detected on HFA, which may be regulated by the differentiation stage of the HFA (FIG. 5 (B)). CD4 and hMR expression in both U87MG and HFA was not augmented by IFNγ or GM-CSF (FIG. 5(A)-(B)). […] HFA were positive for CXCR4 (12%), but its expression was not augmented by GM-CSF or IFNγ treatment (FIG. 5B). IFNγ was reported to enhance CXCR4 and CCR5 expression on simian adult astrocytes, which is in contrast to data on human fetal astrocytes highlighting a discrepancy between simian adult and human fetal astrocytes. […] Infection of U87MG and HFA with a T-tropic isolate (IIIB), while it was productive, was not enhanced by cytokine pre-treatment. This may be a consequence of the laboratory adapted HIV IIIB, therefore primary T-tropic or dual tropic strains may still be responsive to IFNγ pre-treatment of astrocytes. Recently, the CC chemokine receptor D6 was identified as a functional co-receptor for primary HIV infection of astrocytes.

CD4, hMR, CXCR4 on HFA = assay: HIV receptor and chemokine co-receptor expression on HFA by flow cytometry; type: cell-based, human
Protocol: as §1, §2

Substance: IFNγ: cytokine secreted by lymphocytes, activated microglia and astrocytes; used to prime astrocytes
- Maximal induction of HIV replication vs untreated/infected cultures (HIV-Bal in U87MG): 10 fold
- IFNγ receptor expression after treatment (IFNγ receptor on HFA): abrogated
- CD4 and hMR expression [1]: not augmented
- Up-regulation of CCR1 expression ([1]; 24 h treatment): 4 fold
- Up-regulation of D6 expression ([1]; 3 days): 6 fold
- CD4 and hMR expression (CD4, hMR, CXCR4 on HFA): not augmented
- CXCR4 expression (CD4, hMR, CXCR4 on HFA; untreated 12%): not augmented
